{
  "source": "patent US9833437B2",
  "about": "(priority 2014, dated 2017)",
  "key": {"[1]": {"test_system": "pro-inflammatory cytokine production of human PBMCs", "assay_type": "cell-based"}, "[2]": {"test_system": "MyD88-mediated NF-kB driven SEAP reporter response", "assay_type": "cell-based, human"}, "Ebola virus": {"test_system": "Ebola virus", "assay_type": "cell-based", "settings": "read-out: IC50 reduction of virus replication"}, "VEEV (TC-83)": {"test_system": "VEEV (TC-83)", "design": "species or system C3H/HeN mice", "settings": "mouse, in vivo, ip"}, "[3]": {"test_system": "pro-inflammatory cytokine production in spleen cells of BALB/c and C57BL/6 mice", "assay_type": "cell-based, mouse"}, "[4]": {"test_system": "human glioblastoma astrocytoma U87 cells", "assay_type": "cell-based"}, "Lassa virus": {"test_system": "Lassa virus", "assay_type": "cell-based", "settings": "read-out: IC50 reduction of virus replication"}, "[5]": {"test_system": "lethal endotoxic shock (LPS) in mice", "settings": "mouse, in vivo"}, "[6]": {"molecular_target": "T1, MyD88 and IRF3 interaction (Homo sapiens, UniProt Q99836)", "T1 construct": "no number printed for the IRF3-HA plasmid; host or cells: HEK293-TLR3 (InvivoGen)", "T1 sequence (Q99836 whole entry)": "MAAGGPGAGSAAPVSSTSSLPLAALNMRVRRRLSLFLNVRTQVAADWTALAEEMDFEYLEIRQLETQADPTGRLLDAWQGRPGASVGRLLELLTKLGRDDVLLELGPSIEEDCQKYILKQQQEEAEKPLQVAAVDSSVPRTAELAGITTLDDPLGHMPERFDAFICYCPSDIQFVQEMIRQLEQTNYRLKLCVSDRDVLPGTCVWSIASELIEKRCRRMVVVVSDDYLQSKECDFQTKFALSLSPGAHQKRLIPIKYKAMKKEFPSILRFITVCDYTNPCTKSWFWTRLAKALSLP", "assay_type": "cell-based"}, "IRF3 phosphorylation": {"test_system": "IRF3 phosphorylation", "assay_type": "cell-based, human"}, "U937 cells": {"test_system": "U937 cells", "assay_type": "cell-based, human"}, "[7]": {"test_system": "SEB-induced toxic shock in BALB/c mice", "settings": "mouse, in vivo"}, "HEK293-TLR3 cells": {"test_system": "HEK293-TLR3 cells", "assay_type": "cell-based, human"}, "dengue virus": {"test_system": "dengue virus", "assay_type": "cell-based", "settings": "read-out: IC50 reduction of virus replication"}, "Rift valley fever virus": {"test_system": "Rift valley fever virus", "assay_type": "cell-based", "settings": "read-out: IC50 reduction of virus replication"}},
  "note": "Several values for one entry are separate records, joined by “and”; a condition that tells them apart may be missing. Identical values can stand only once. Like-named read-outs stand apart in the source and are kept apart here.",
  "data": [
    {"smiles": "CC(C)[C@H](NC(=O)CCc1ccccc1)C(=O)N1CCCC1", "note": "[Compound 1, Hydrocinnamoyl-L-valyl-pyrrolidine, reference compound]", "values": [
      {"measurement": "IC50", "setting": "[1]; read-out: IC50 IFN-γ", "result": "41 µM and 40 µM"},
      {"measurement": "IC50", "setting": "[1]; read-out: IC50 IL-1β", "result": 24, "unit": "µM"},
      {"measurement": "IC50", "setting": "[1]; read-out: IC50 IL-6", "result": 14, "unit": "µM"},
      {"measurement": "IC50", "setting": "[1]; read-out: IC50 TNF-α", "result": 19, "unit": "µM"},
      {"measurement": "IC50", "setting": "[2]", "result": 180, "unit": "µM"}
    ]},
    {"smiles": "CC(C)[C@@H](C(=O)N1CCCC1)N(CCCc1ccccc1)C(=O)[C@H]1CC[C@H](C(=O)N(CCCc2ccccc2)[C@H](C(=O)N2CCCC2)C(C)C)CC1", "note": "[Compound 4210]", "values": [
      {"measurement": "inhibition of cytokine production", "setting": "[1]", "result": "inhibited cytokine production"},
      {"measurement": "IC50", "setting": "[1]; read-out: IC50 IFN-γ", "result": "0.3 µM and 0.9 µM"},
      {"measurement": "IC50", "setting": "[1]; read-out: IC50 IL-1β", "result": 0.73, "unit": "µM"},
      {"measurement": "IC50", "setting": "[1]; read-out: IC50 IL-6", "result": "0.4 µM and 0.17 µM"},
      {"measurement": "IC50", "setting": "[1]; read-out: IC50 TNF-α", "result": 0.27, "unit": "µM"},
      {"measurement": "IC50", "setting": "[1]; read-out: average inhibitory concentration (IC50) for most of the pro-inflammatory cytokines tested", "result": "1 to 50", "unit": "µM"},
      {"measurement": "IC50", "setting": "Ebola virus", "result": 42, "unit": "µM"},
      {"measurement": "clinical disease score", "setting": "VEEV (TC-83)", "result": "less clinical diseases score"},
      {"measurement": "survival", "setting": "VEEV (TC-83)", "result": "increased survival"},
      {"measurement": "weight loss", "setting": "VEEV (TC-83)", "result": "significantly prevented weight loss"},
      {"measurement": "inhibition of pro-inflammatory cytokine production in spleen cell cultures", "setting": "[3]", "result": "inhibited most of the pro-inflammatory cytokine production"},
      {"measurement": "IFN-β production", "setting": "[4]", "result": "increased IFN-β production in a dose dependent manner"},
      {"measurement": "RANTES production", "setting": "[4]", "result": "increase in RANTES production"},
      {"measurement": "IC50", "setting": "Lassa virus", "result": 35, "unit": "µM"},
      {"measurement": "effect on death", "setting": "[5]", "result": "delayed death"},
      {"measurement": "mice protected from lethal endotoxic shock", "setting": "[5]", "result": 33, "unit": "%"},
      {"measurement": "MyD88-associated IRF3 band after pull down with Flag antibody", "setting": "[6]", "result": "dose dependent decrease of IRF3 band"},
      {"measurement": "phosphorylation of IRF-3", "setting": "IRF3 phosphorylation", "result": "increase in phosphorylation was observed in a dose dependent manner"},
      {"measurement": "RANTES production", "setting": "U937 cells", "result": "increase in antiviral RANTES production"},
      {"measurement": "expression of co-stimulatory molecules CD86 and CD80", "setting": "U937 cells", "result": "increased expression co-stimulatory molecules such as CD86 and CD80"},
      {"measurement": "increase in IFN-β production", "setting": "U937 cells", "result": "over 3 fold"},
      {"measurement": "amount giving therapeutic efficacy from toxic shock-induced death with lethal SEB challenge", "setting": "[7]", "result": 1, "unit": "mg"},
      {"measurement": "effect on death, post-exposure treatment", "setting": "[7]", "result": "delayed in death"},
      {"measurement": "protection", "setting": "[7]", "result": "completely protected"},
      {"measurement": "protection, post-exposure treatment", "setting": "[7]", "result": 33, "unit": "%"},
      {"measurement": "survivability", "setting": "[7]", "result": "33% and 66%"},
      {"measurement": "RANTES production", "setting": "HEK293-TLR3 cells", "result": "increased in RANTES production"},
      {"measurement": "IC50", "setting": "dengue virus", "result": 31, "unit": "µM"},
      {"measurement": "IC50", "setting": "Rift valley fever virus", "result": 22, "unit": "µM"}
    ]}
  ]
}
